Results on 16 substances are retold here after patent US8524861B2, “Treatment of bacterial infections” (priority 2004, dated 2013).

Entries after “also recorded” stand apart in the source; their conditions may differ. Where no end group is shown, it is not given here. Where only a bound is given, the exact number is not on record here.

In data set [1] the test system is Saccharomyces cerevisiae yeast cells (strain GenT01). The experiment in a line: Gentronix GreenScreen GC yeast genotoxicity assay. Format: cell-based. To be noted: concentrations up to and including 100 μM, FIGS. 6A-6C. The method, then: A liquid handling robot is used to produce a serial dilution series of each test compound in a 96-well, black microplate with an optically clear base. […] In addition, a series of genotoxic and cytotoxic standards and non-toxic controls are run to provide internal quality control. The plates are covered with a breathable membrane and incubated overnight, without shaking, at 25° C.
After incubation, the microplates are uncovered and data collected using a Tecan Ultra 384 microplate reader. This instrument provides measurements of light absorbance and fluorescence in microplates; a standard fluorescein filter set (excitation 485/25 and emission 535/25) is used. Absorbance is read at 620 nm and is proportional to cell proliferation (which is lowered by toxic analytes). Fluorescence is proportional to the activity of the DNA repair system (increased by genotoxic analytes). The yeast cultures used are a genetically modified strain that express a green fluorescent protein whenever the cells carry out DNA damage repair. Fluorescence is normalised to the absorbance signal to correct for variation in cell yield caused by any cytolytic activity of the test compounds against the yeast cells. This produces a “fluorescence per cell” measurement termed “brightness”. In addition to the Gentronix Assay yeast strain (GenT01), a control Saccharomyces cerevisiae strain (GenC01) is also used, which is identical except for its ability to produce green fluorescent protein is disabled. This strain is used to provide a control to allow correction for substances which may be either autofluorescent themselves or which induce an autofluorescence in the yeast cells. The data collected is simply transferred into a Excel template where result evaluation sheets are automatically produced. The sheets contain the processed results in both a graphical and tabulated format, with automatic assessment of the result, i.e. positive or negative, and calculation of the lowest effective concentration (LEC), for both genotoxicity and cytotoxicity. […]

The subject of data set [2] is Staphylococcus aureus, Pseudomonas aeruginosa, and Streptococcus pneumoniae. The experiment in a line: Antibacterial activity, overall statements over the test bacteria. Format: cell-based. The text has this: The inventors conducted exhaustive experiments to assess the antibacterial activity of peptides from apolipoproteins and derivatives thereof. Peptides and derivatives from ApoE and ApoB were a particular focus. […] Example 1 illustrates the efficacy of the polypeptides according to the invention compared to apoE141-149 and apoB3359-3367 (i.e. non-tandem repeats) and other peptides derived from apolipoproteins.
The activity of polypeptides in accordance with the invention can be seen in Tables 5, 6, 7 and 8.
(§1) The peptides were examined for antibacterial efficacy against Staphylococcus aureus. To test the efficacy of peptides, dilutions of test peptides or PBS (for use as a control) were prepared in LB broth, and 100 μl aliquots of these placed in 96-well plates. A vial of planktonic bacterial stock was thawed in a 37° C. incubator and diluted to the level previously determined which would produce log phase growth after overnight incubation (see above). 25 μl of this bacterial dilution was then added to the test wells (some wells containing LB broth without peptide were left without any bacterial inoculation, these being used as a blank). After overnight growth, the concentration of bacteria in individual wells was assessed by measuring absorbance at 620 nm, in a microplate spectrophotometer. The average absorbance of wells for specific concentrations of peptides was calculated, and from this the percentage inhibition (relative to untreated wells) was also calculated and plotted against concentration (along with an estimate of error on that % inhibition).
(§2) The inventor constructed an expanded library of peptides derived from either apolipoprotein B or apolipoprotein E in order to further evaluate polypeptides in accordance with the invention. Further experiments were then conducted to investigate the antibacterial activity of this peptide library against the bacteria P. aeroginosa, S. aureus and S. pneumoniae. The methods used to determine the IC50 values for each peptide were as described in the Example 1.

In data set [3] the test system is Pseudomonas aeruginosa (ATCC strain 9027). Format: cell-based. Particulars: for IC50: ATCC strain 9027; for Effectiveness against Pseudomonadales, in particular P. aeruginosa, in words: summary in description. The method, then:
(§3) Bacterial Stocks—ATCC derived stock bacteria were obtained from Oxoid Limited. Pseudomonas aeruginosa (ATCC strain 9027) or Staphylococcus aureus (ATCC strain 6538P) were obtained in ‘Cultiloop’ format. Stocks were prepared by inoculating 20 ml of LB broth with a single Cultiloop, and incubating overnight at 37° C. Cells present after overnight incubation were harvested by removing larger aggregates by centrifugation (3000 g, 10 minutes), and withdrawing 16 ml of the supernatant, which was likely to contain mainly planktonic bacteria. To this, 4 ml of sterile glycerol was added (the latter having been sterilised by autoclaving). The resultant suspension was divided between 15× 1 ml cryovials before freezing at −85° C.
(§4) Preliminary experiments were carried out to estimate the amount to dilute bacterial stocks which when on addition of 25 μl of diluted stock to 100 μl of fresh LB broth would result in bacteria in log phase growth after overnight incubation at 37° C.
as §1
Peptides in accordance with the invention were also examined for antibacterial efficacy against Pseudomonas aeruginosa using the same technique as described above to calculate the IC50 values.
Points were obtained by dividing the average for six treated wells by the average for six untreated wells, and bars show an estimate of the error for these calculated values.
as §2

In data set [4] the test system is Staphylococcus aureus (ATCC strain 6538P). Format: cell-based. Particulars: ATCC strain 6538P. As for the experimental part: as §3, §4, §1, §2
The test system of another data set is Streptococcus pneumoniae. Format: cell-based. The method, then:
as §1, with “inhibition). […] The inventor constructed an expanded library of peptides derived from either apolipoprotein B or apolipoprotein E in order to further evaluate polypeptides in accordance with the invention. Further experiments were then conducted to investigate the antibacterial activity of this peptide library against the bacteria P. aeroginosa, S. aureus and S. pneumoniae. The methods used to determine the IC50 values for each peptide were as described in the Example 1.” for “inhibition).”

A further data set has as its system bacteria. To be noted: Peptides, 21: 327-330 (2000); cited from earlier work.

Usually IC50 stands for the midpoint of a concentration-inhibition curve. Read a high IC50 as weaker potency. Regarding Ac-WRKWRKRWWLRKLRKRLL-NH2 [GIN 34], in data set [1], the “Genotoxic response in test yeast strain (GenT01)” value is “failed to produce any genotoxic response”. In addition, the “Antibacterial activity, in words, bacterium not specified” value in data set [2] was “particularly effective”. Further, the IC50 in data set [3] was 3 µM; in data set [4], 7 µM. Further, the “Effectiveness against Pseudomonadales, in particular P. aeruginosa, in words” value in data set [3] is “particularly effective”.

With “KRWRKRWRKWRWRKRWRK-NH2 (C-terminus assumed) [MU_29]”, the IC50 stood at 7.5 µM in data set [3], 52 µM with Streptococcus pneumoniae and 23 µM in data set [4].

“HRWRKRWRKWRWRKRWRK-NH2 (C-terminus assumed) [MU_31]”: the values for the IC50 (in data set [3]; with Streptococcus pneumoniae; in data set [4]) were 12 µM, 42 µM and 17 µM, respectively.

Ac-WRWRKRWRKWRWRKRWRK-NH2 [MU_27]: the “Genotoxic response in test yeast strain (GenT01)” value in data set [1] is “failed to produce any genotoxic response”. In addition, the midpoint of inhibition in the data set with Streptococcus pneumoniae, the IC50, lay at 46 µM.

As for “Ac-LRKLRKRLRKLRKR-NH2 (N-terminus and C-terminus assumed) [GIN 08]”, in data set [3], the midpoint of inhibition, the IC50, lay at 9.2 µM and the “Effectiveness against Pseudomonadales, in particular P. aeruginosa, in words” value is “particularly effective”. Further, the IC50 in the data set on Streptococcus pneumoniae is more than 53 µM.

With “RWRKRWRKWRWRKRWRK-NH2 (C-terminus assumed) [MU_32]”, the “Antibacterial activity, in words, bacterium not specified” value in data set [2] was “particularly effective”. Further, the values for the IC50 (in data set [3]; in the data set with Streptococcus pneumoniae; in data set [4]) were 12 µM, 46 µM and 15 µM, respectively.

As for “LRWRKRWRKWRWRKRWRK-NH2 (C-terminus assumed) [MU_30]”, in data set [2], the “Antibacterial activity, in words, bacterium not specified” value is “particularly effective”. Besides, the IC50 in data set [3] amounted to 15 µM; in the data set with Streptococcus pneumoniae it was 38 µM; in data set [4] it was 15 µM.

“RRKRRKRRRRRKRRKRRR-NH2 (C-terminus assumed) [MU_16]”: the IC50 (in data set [3]; in the data set with Streptococcus pneumoniae) was more than 53 µM in each case.

“RRWRKRWRKRRWRKRWRK-NH2 (C-terminus assumed) [MU_33]”: the IC50 in data set [3] was more than 53 µM; in the data set with Streptococcus pneumoniae, 53 µM; in data set [4], 38 µM.

On to “apoE134-155: Azuma's shorter apoE peptide, stated as 18 amino acids in length (RVRLASHLRKLRKRLLRDADDL; UniProt P02649 152-173, looked up, fragment)”, for which the “Antibacterial activity reported by Azuma et al., in words” value (shortened to “Antibacterial activity reported”) in the data set on bacteria is given as “no activity at all”.

As to “LRVRLASHLRKLRKRLLRDADDLQKRLAVY [apoE133-162, 30-mer monomeric peptide of Azuma et al]”, in the data set with bacteria, the “Antibacterial activity reported” value is recorded as “comparable with that of the antibiotic gentamicin”.

On to “apoE134-159: Azuma's shorter apoE peptides, label printed for both a 22 and a 26 amino acid peptide (RVRLASHLRKLRKRLLRDADDLQKRL; UniProt P02649 152-177, looked up, fragment)”, for which, in the data set on bacteria, the “Antibacterial activity reported” value is “very low antibacterial activity; also recorded: greatly reduced antibacterial activity”.

As for “LRKLRKRLL-NH2 (C-terminus assumed) [MU_46]”, the IC50 is 22 µM in data set [3] and more than 53 µM with Streptococcus pneumoniae.

As to “RRWRKRWRKWRWRKRWRK-NH2 (C-terminus assumed) [MU_28]”, in data set [2], the “Antibacterial activity, in words, bacterium not specified” value is listed as “particularly effective”. Also, the IC50 in data set [3] stood at 11.5 µM; in the data set on Streptococcus pneumoniae, 46 µM; in data set [4], 15 µM.

With “LRWRKRWRKLRWRKRWRK-NH2 (C-terminus assumed) [MU_35]”, the values for the IC50 (in data set [3]; with Streptococcus pneumoniae; in data set [4]) were 23 µM, 53 µM and 31 µM, respectively.

On to “HRWRKRWRKHRWRKRWRK-NH2 (C-terminus assumed) [MU_36]”, for which the 50% inhibitory concentration (IC50) is more than 53 µM in data set [3], more than 53 µM in the data set on Streptococcus pneumoniae and 40 µM in data set [4].
